Converted amounts (≈) assume the structure as drawn. The source made the active and inactive calls. Unless noted, the rule behind the calls is not given here.
How the values were obtained:
Escherichia coli = experiment: Growth inhibition of Escherichia coli ATCC 15939 incubated for 24 hrs under aerobic condition by microdilution method; assay type: organism-based
Fusobacterium nucleatum = experiment: Antibiofilm activity against Fusobacterium nucleatum ATCC 25586 assessed as inhibition of biofilm formation up to 96 ug/mL after 24 hrs by crystal violet staining based assay; assay type: functional, organism-based
Staphylococcus aureus = experiment: Growth inhibition of Staphylococcus aureus ATCC 6538 incubated for 24 hrs under aerobic condition by microdilution method; assay type: organism-based; settings: in vitro
Streptococcus mutans [1] = experiment: Antibiofilm activity against Streptococcus mutans ATCC 25175 assessed as inhibition of biofilm formation up to 96 ug/mL after 24 hrs by crystal violet staining-based assay; assay type: functional, organism-based
[2] = system: Limosilactobacillus fermentum; experiment: Antibiofilm activity against Lactobacillus fermentum LacB1 assessed as inhibition of biofilm formation up to 96 ug/mL after 24 hrs by crystal violet staining based assay; assay type: functional, organism-based
Streptococcus mutans [3] = experiment: Inhibition of planktonic growth of Streptococcus mutans ATCC 25175 up to 96 ug/mL after 24 hrs relative to control; assay type: organism-based
Pseudomonas aeruginosa = experiment: Growth inhibition of Pseudomonas aeruginosa ATCC 10145 incubated for 24 hrs under aerobic condition by microdilution method; assay type: organism-based
Porphyromonas gingivalis = experiment: Antibiofilm activity against Porphyromonas gingivalis ATCC 33277 assessed as inhibition of biofilm formation up to 96 ug/mL after 24 hrs by crystal violet staining based assay; assay type: functional, organism-based
Listeria monocytogenes = experiment: Growth inhibition of Listeria monocytogenes WSLC 1001 incubated for 24 hrs under aerobic condition by microdilution method; assay type: organism-based; settings: in vitro
Streptococcus mutans [4] = experiment: Antiadherence activity in FITC-labelled Streptococcus mutans ATCC 25175 assessed as reduction in bacterial adhesion to hydroxylapatite up to 96 ug/mL after 1 hr fluorescence assay; assay type: functional, organism-based
Actinomyces naeslundii [5] = experiment: Antibiofilm activity against Actinomyces naeslundii ATCC 49340 assessed as prevention of homogenous biofilm formation at 96 ug/mL after 24 hrs by crystal violet staining-based assay; assay type: functional, organism-based
Streptococcus mutans [6] = experiment: Antibiofilm activity against Streptococcus mutans ATCC 25175 assessed as inhibition of biofilm formation at 6 to 12 ug/mL after 24 hrs by crystal violet staining-based assay; assay type: functional, organism-based
Streptococcus mutans [7] = experiment: Disruption of Streptococcus mutans ATCC 25175 pre-formed mature biofilm assessed as reduction in biofilm biomass at 96 ug/mL after 12 hrs by crystal violet staining based assay; assay type: functional, organism-based
Candida albicans [8] = experiment: Disruption of Candida albicans ATCC 28366 pre-formed mature biofilm assessed as reduction in biofilm biomass at 96 ug/mL after 12 hrs by crystal violet staining based assay; assay type: functional, organism-based
Candida albicans [9] = experiment: Growth inhibition of Candida albicans ATCC 28366 up to 96 ug/ml measured after 24 hrs by microdilution method; assay type: organism-based; settings: in vitro
Candida albicans [10] = experiment: Antibiofilm activity against Candida albicans ATCC 28366 assessed as reduction of biofilm formation after 24 hrs by crystal violet staining based assay; assay type: functional, organism-based
Candida albicans [11] = experiment: Antiadherence activity against FITC-labelled Candida albicans ATCC 28366 assessed as reduction in bacterial adhesion to hydroxylapatite up to 96 ug/mL after 1 hr by fluorescence assay relative to control; assay type: functional
Candida albicans [12] = experiment: Antibiofilm activity against Candida albicans ATCC 28366 assessed as reduction of biofilm formation at 24 to 48 ug/mL after 24 hrs by crystal violet staining based assay; assay type: functional, organism-based
Enterococcus faecalis = experiment: Antimicrobial activity against vancomycin-resistant Enterococcus faecalis measured after 24 hrs by agar-dilution method; assay type: functional
Actinomyces naeslundii [13] = experiment: Antibiofilm activity against Actinomyces naeslundii ATCC 49340 assessed as reduction of biofilm formation at 48 ug/mL after 24 hrs by crystal violet staining based assay; assay type: functional, organism-based
Actinomyces naeslundii [14] = experiment: Antibiofilm activity against Actinomyces naeslundii ATCC 49340 assessed as reduction of biofilm formation by visual analysis; assay type: functional, organism-based
Actinomyces naeslundii [15] = experiment: Antibiofilm activity against Actinomyces naeslundii ATCC 49340 assessed as prevention of homogenous biofilm formation up to 96 ug/mL after 24 hrs by crystal violet staining based assay; assay type: functional, organism-based
Actinomyces naeslundii [16] = experiment: Antibiofilm activity against Actinomyces naeslundii ATCC 49340 assessed as inhibition of bacterial adhesion up to 96 ug/mL after 24 hrs by crystal violet staining based assay; assay type: functional, organism-based
[17] = Solubility of the compound in water; assay type: physicochemical; settings: buffer

SMILES | MIC (Escherichia coli) | inhibition (Fusobacterium nucleatum) | MIC (Staphylococcus aureus) | inhibition (Streptococcus mutans [1]) | inhibition [2] | growth inhibition (GI) (Streptococcus mutans [3]) | MIC (Pseudomonas aeruginosa) | inhibition (Porphyromonas gingivalis) | MIC (Listeria monocytogenes) | further results
O=C1N[C@H](Cc2ccccc2)C(=O)N[C@@H]1Cc1ccccc1 | > 192 µg/mL | inactive | > 192 µg/mL | inactive | inactive | Non-Toxic | > 192 µg/mL | inactive | > 192 µg/mL | –
O=C1N[C@@H](Cc2ccc(OCc3ccccc3)cc2)C(=O)N[C@H]1Cc1ccccc1 | > 192 µg/mL | inactive | > 192 µg/mL | Active | inactive | Non-Toxic | > 192 µg/mL | inactive | > 192 µg/mL | Activity (Streptococcus mutans [4]): Active; Activity (Actinomyces naeslundii [5]): inactive; Activity (Streptococcus mutans [6]): Active; Activity (Streptococcus mutans [7]): inactive; Activity (Candida albicans [8]): inactive; growth inhibition (GI) (Candida albicans [9]): Non-Toxic; Activity (Candida albicans [10]): Dose-dependent effect; Activity (Candida albicans [11]): Active; Activity (Candida albicans [12]): Active
CC(C)C[C@@H]1NC(=O)[C@@H]2CCCN2C1=O | – | inactive | – | inactive | – | Non-Toxic | – | inactive | – | MIC (Enterococcus faecalis): 12.5 µg/mL (≈ 59.4 µM)
O=C1N[C@H](Cc2ccc(OCc3ccccc3)cc2)C(=O)N[C@@H]1Cc1ccccc1 | > 192 µg/mL | inactive | > 192 µg/mL | Active | inactive | Non-Toxic | > 192 µg/mL | inactive | > 192 µg/mL | inhibition (Actinomyces naeslundii [13]): Active; Activity (Streptococcus mutans [4]): Active; inhibition (Actinomyces naeslundii [14]): Active; Activity (Actinomyces naeslundii [15]): Active; Activity (Streptococcus mutans [6]): Active; Activity (Streptococcus mutans [7]): inactive; Activity (Candida albicans [8]): inactive; growth inhibition (GI) (Candida albicans [9]): Non-Toxic; Activity (Candida albicans [10]): Dose-dependent effect; Activity (Candida albicans [11]): Active; Activity (Candida albicans [12]): Active; inhibition (Actinomyces naeslundii [16]): inactive
O=C1N[C@H](Cc2ccc(OCc3ccccc3)cc2)C(=O)N[C@@H]1Cc1ccc(OCc2ccccc2)cc1 | > 192 µg/mL | inactive | > 192 µg/mL | Active | inactive | Non-Toxic | > 192 µg/mL | inactive | > 192 µg/mL | inhibition (Actinomyces naeslundii [13]): Active; Activity (Streptococcus mutans [4]): Active; inhibition (Actinomyces naeslundii [14]): Active; Activity (Actinomyces naeslundii [15]): Active; Activity (Streptococcus mutans [6]): Active; Activity (Streptococcus mutans [7]): inactive; Activity (Candida albicans [8]): inactive; growth inhibition (GI) (Candida albicans [9]): Non-Toxic; Activity (Candida albicans [10]): Dose-dependent effect; Activity (Candida albicans [11]): Active; Activity (Candida albicans [12]): Active; inhibition (Actinomyces naeslundii [16]): inactive
O=C1N[C@H](Cc2ccc(OCc3ccccc3)cc2)C(=O)N[C@H]1Cc1ccccc1 | > 192 µg/mL | inactive | > 192 µg/mL | inactive | inactive | Non-Toxic | > 192 µg/mL | inactive | > 192 µg/mL | solubility [17]: Insoluble
O=C1N[C@H](Cc2ccccc2)C(=O)N[C@H]1Cc1ccccc1 | > 192 µg/mL | inactive | > 192 µg/mL | inactive | inactive | Non-Toxic | > 192 µg/mL | inactive | > 192 µg/mL | –
O=C1N[C@H](Cc2ccccc2)C(=O)N[C@H]1Cc1ccc(OCc2ccccc2)cc1 | > 192 µg/mL | inactive | > 192 µg/mL | Active | inactive | Non-Toxic | > 192 µg/mL | inactive | > 192 µg/mL | inhibition (Actinomyces naeslundii [13]): Active; Activity (Streptococcus mutans [4]): Active; inhibition (Actinomyces naeslundii [14]): Active; Activity (Actinomyces naeslundii [15]): Active; Activity (Streptococcus mutans [6]): Active; Activity (Streptococcus mutans [7]): inactive; Activity (Candida albicans [8]): inactive; growth inhibition (GI) (Candida albicans [9]): Non-Toxic; Activity (Candida albicans [10]): Dose-dependent effect; Activity (Candida albicans [11]): Active; Activity (Candida albicans [12]): Active; inhibition (Actinomyces naeslundii [16]): inactive
O=C1N[C@@H](Cc2ccc(OCc3ccccc3)cc2)C(=O)N[C@H]1Cc1ccc(OCc2ccccc2)cc1 | > 192 µg/mL | inactive | > 192 µg/mL | Active | inactive | Non-Toxic | > 192 µg/mL | inactive | > 192 µg/mL | inhibition (Actinomyces naeslundii [13]): Active; Activity (Streptococcus mutans [4]): Active; inhibition (Actinomyces naeslundii [14]): Active; Activity (Actinomyces naeslundii [15]): Active; Activity (Streptococcus mutans [6]): Active; Activity (Streptococcus mutans [7]): inactive; Activity (Candida albicans [8]): inactive; growth inhibition (GI) (Candida albicans [9]): Non-Toxic; Activity (Candida albicans [10]): Dose-dependent effect; Activity (Candida albicans [11]): Active; Activity (Candida albicans [12]): Active; inhibition (Actinomyces naeslundii [16]): inactive
CC(C)[C@@H]1NC(=O)[C@@H](Cc2ccc(OCc3ccccc3)cc2)NC1=O | – | inactive | – | inactive | – | Non-Toxic | – | inactive | – | –
O=C1N[C@@H](Cc2ccccc2)C(=O)N[C@H]1Cc1ccccc1 | > 192 µg/mL | inactive | > 192 µg/mL | inactive | inactive | Non-Toxic | > 192 µg/mL | inactive | > 192 µg/mL | –
CC(C)C[C@@H]1NC(=O)[C@H](Cc2ccc([N+](=O)[O-])cc2)NC1=O | – | inactive | – | inactive | – | Non-Toxic | – | inactive | – | –
CC(C)C[C@@H]1NC(=O)CNC1=O | – | inactive | – | inactive | – | Non-Toxic | – | inactive | – | –
CC(C)C[C@@H]1NC(=O)[C@H](CC(C)C)NC1=O | – | inactive | – | inactive | – | Non-Toxic | – | inactive | – | –
CC(C)C[C@H]1NC(=O)[C@H](C(C)C)NC1=O | – | inactive | – | inactive | – | Non-Toxic | – | inactive | – | –
C[C@@H]1NC(=O)[C@H](C)NC1=O | – | inactive | – | inactive | – | Non-Toxic | – | inactive | – | –
O=C1N[C@@H](COCc2ccccc2)C(=O)N[C@H]1COCc1ccccc1 | – | inactive | – | inactive | – | Non-Toxic | – | inactive | – | –
O=C(NCCCC[C@@H]1NC(=O)[C@H](Cc2ccccc2)NC1=O)OCc1ccccc1 | – | inactive | – | inactive | – | Non-Toxic | – | inactive | – | –

From ChEMBL document CHEMBL4340502, “Anti-biofilm and anti-adherence properties of novel cyclic dipeptides against oral pathogens” (Bioorg Med Chem, 2019)
